Some results are limits rather than exact numbers.

For test [1], the target named is T1, Protein mono-ADP-ribosyltransferase TIPARP (Homo sapiens, UniProt Q7Z3E1).
T1 sequence (Q7Z3E1 whole entry): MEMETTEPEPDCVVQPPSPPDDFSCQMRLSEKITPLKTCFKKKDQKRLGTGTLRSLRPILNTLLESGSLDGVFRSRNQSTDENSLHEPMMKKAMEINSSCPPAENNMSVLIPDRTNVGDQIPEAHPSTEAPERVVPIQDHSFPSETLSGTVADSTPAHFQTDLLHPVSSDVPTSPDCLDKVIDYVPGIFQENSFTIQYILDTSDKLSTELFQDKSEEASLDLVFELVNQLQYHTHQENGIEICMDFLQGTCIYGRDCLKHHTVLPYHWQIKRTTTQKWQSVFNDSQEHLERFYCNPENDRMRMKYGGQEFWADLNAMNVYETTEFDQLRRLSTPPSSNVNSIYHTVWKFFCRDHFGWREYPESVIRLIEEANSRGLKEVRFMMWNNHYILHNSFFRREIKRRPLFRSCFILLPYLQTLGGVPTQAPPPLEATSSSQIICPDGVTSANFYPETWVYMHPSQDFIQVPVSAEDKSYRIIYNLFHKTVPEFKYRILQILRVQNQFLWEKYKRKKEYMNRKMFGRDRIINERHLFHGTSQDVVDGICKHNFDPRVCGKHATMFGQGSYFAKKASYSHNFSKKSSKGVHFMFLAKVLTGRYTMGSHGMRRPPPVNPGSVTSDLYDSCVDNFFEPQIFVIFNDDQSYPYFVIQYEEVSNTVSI
Nature of the test: PARP7 Biochemical Assay. Here is the method: 23 μL of 100 nM His-GST-PARP7 in PARP buffer for reaction (PBR) (50 mM HEPES pH 7.5, 100 mM NaCl, 4 mM MgCl2, 0.2 mM TCEP) was added to each well of XpressBio GSH-coated 384 well plates and incubated for 1 h at RT. The plate was then washed for 3 times in 50 μL PBST (1×PBS, 0.02% Tween-20), followed by one wash in 1×PBS and one wash PBR. Each wash was incubated for 3 min. After washing, varying concentrations of each inhibitor was pre-incubated with 20 μM (2×) 6-a-NAD+. The solution was added to the plate, diluted to 1× in PBR, and incubated at 30° C. for 90 min. Following the enzymatic reaction, the plate was washed 3 times in PBST, once in PBS for 3 min each wash. The wells were then subjected to 25 μL of click reaction buffer consisting of 100 μM TBTA, 1 mM CuSO4, 100 μM Biotin-N3, 2 mM TCEP made up in 1×PBS. The wells were incubated in click reaction buffer for 30 min at 30° C. The click buffer was removed, and the plate was washed 3 times with PBST and once with PBS as before. The plate was then blocked with 5% BSA in PBST. The plate was then washed 3 times with PBST and once with PBS. To develop, the plate was incubated with 25 μL of 0.05 ng/μL Step-HRP with 0.02% BSA in PBS. The plate was washed 3 times with PBS before developing with QuantaRed per manufacturer directions. Fluorescence (Excitation 550 nm. Emission 620 nm) was immediately read using a Paradigm Plate Reader.

Test [2] addresses Poly [ADP-ribose] polymerase 2 (Homo sapiens, UniProt Q9UGN5). Nature of the test: Protocol for the PARP1 and PARP2 Biochemical Assays. Here is the method:
(§1) Each wash was incubated for 3 min. After washing, varying concentrations of each inhibitor was pre-incubated with 20 μM (2×) 6-a-NAD+. 25 μL of the 2×6-a-NAD+/inhibitor mixture was added to the plate with 25 μL of 20 nM of PARP1 or PARP2 in PBR with 0.1 mg/mL Activated DNA (Sigma). PARP final concentration 10 nM. The reaction mixture was incubated at 30° C. for 1 h. The plate was then washed 3 time with PBST and once with PBS. The wells were subjected to a 50 μL click reaction consisting of 100 μM TBTA, 1 mM CuSO4. 100 μM Biotin-N3, 2 mM TCEP made up in 1×PBS at RT for 30 min. The plate was then washed 3 times with PBST before blocking in 100 μL of 1% Milk (Carnation) in PBST at RT for 30 min. The plate was again washed 3 times with PBST and once with PBS before incubation with Strep-HRP (0.05 ng/μL Strep-HRP (Fisher Scientific), 300 ng/μL BSA, 1×PBS) for 30 min at RT. The plate was washed 3 time in PBST and once with PBS before development with QuantaRed (Pierce) per manufacturer directions.

The target of test [3] is Poly [ADP-ribose] polymerase 1 (Homo sapiens, UniProt P09874). The test is described as above. Here is the method: as §1
Chain of Poly [ADP-ribose] polymerase 1 (P09874 whole entry): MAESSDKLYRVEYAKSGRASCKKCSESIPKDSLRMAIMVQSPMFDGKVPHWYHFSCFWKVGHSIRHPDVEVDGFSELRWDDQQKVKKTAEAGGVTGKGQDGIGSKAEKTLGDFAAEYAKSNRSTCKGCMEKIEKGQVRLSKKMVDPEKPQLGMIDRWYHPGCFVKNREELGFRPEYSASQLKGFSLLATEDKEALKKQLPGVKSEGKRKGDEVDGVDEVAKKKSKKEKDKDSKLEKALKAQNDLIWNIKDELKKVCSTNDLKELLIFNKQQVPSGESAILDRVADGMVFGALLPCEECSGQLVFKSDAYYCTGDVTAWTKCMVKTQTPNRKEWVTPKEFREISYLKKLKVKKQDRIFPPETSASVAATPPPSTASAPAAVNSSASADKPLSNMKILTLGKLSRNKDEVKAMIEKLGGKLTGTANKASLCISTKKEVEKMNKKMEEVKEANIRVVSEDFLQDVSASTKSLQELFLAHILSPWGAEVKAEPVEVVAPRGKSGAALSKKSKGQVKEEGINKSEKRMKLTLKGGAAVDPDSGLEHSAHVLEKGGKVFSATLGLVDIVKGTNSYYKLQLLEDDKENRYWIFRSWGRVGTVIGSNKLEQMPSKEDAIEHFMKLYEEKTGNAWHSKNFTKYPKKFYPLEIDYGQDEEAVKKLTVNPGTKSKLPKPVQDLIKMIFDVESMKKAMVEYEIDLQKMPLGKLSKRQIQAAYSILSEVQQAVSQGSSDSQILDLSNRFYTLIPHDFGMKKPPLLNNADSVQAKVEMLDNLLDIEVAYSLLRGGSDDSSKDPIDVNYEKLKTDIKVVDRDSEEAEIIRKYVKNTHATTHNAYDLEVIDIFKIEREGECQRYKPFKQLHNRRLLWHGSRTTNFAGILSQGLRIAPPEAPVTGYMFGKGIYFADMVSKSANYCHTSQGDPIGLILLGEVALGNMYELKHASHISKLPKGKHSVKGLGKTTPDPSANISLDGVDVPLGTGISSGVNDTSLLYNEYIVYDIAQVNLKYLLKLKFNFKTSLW

Chain of Poly [ADP-ribose] polymerase 2 (Q9UGN5 whole entry): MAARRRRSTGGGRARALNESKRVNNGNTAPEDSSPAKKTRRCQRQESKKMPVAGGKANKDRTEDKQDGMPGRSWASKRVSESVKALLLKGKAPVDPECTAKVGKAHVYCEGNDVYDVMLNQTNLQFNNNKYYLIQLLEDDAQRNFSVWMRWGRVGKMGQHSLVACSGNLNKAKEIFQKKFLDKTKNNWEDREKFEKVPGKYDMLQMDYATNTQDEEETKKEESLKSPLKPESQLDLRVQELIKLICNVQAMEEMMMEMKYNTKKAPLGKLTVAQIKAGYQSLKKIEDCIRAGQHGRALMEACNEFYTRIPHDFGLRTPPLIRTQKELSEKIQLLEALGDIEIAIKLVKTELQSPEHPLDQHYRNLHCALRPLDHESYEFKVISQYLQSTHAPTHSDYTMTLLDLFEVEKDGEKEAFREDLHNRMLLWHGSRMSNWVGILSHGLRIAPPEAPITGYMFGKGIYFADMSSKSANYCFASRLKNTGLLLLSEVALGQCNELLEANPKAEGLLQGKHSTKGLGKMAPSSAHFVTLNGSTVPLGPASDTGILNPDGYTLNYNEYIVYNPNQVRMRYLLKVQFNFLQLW

Regarding `N#Cc1ccc(N2CCN(C(=O)c3cc(Cc4n[nH]c(=O)c5ccc(CCC(F)(F)F)cc45)ccc3F)CC2)nc1` [US20260055079, Example 25], in test [1], the IC50 – broadly, the concentration that inhibits the measured activity by half – is < 50 nM.
Take `N#Cc1ccc(N2CCN(C(=O)c3cc(Cc4n[nH]c(=O)c5ccc(/C=C/C(F)(F)F)cc45)ccc3F)CC2)nc1` [US20260055079, Example 27]: in test [1], the IC50 was < 50 nM.
Turning to `CCc1ccc2c(=O)[nH]nc(Cc3ccc(F)c(C(=O)N4CCN(c5ncc(C(F)(F)F)cn5)CC4)c3)c2c1` [US20260055079, Example 43], the IC50 in test [1] was < 50 nM.
With `CC#Cc1ccc2c(=O)[nH]nc(Cc3ccc(F)c(C(=O)N4CCN(c5ncc(C(F)(F)F)cn5)CC4)c3)c2c1` [US20260055079, Example 48], the IC50 in test [2] was > 2000 nM.
Regarding `N#Cc1cnc(N2CCN(C(=O)c3cc(Cc4n[nH]c(=O)c5ccc(OC6CCC6)cc45)ccc3F)CC2)cc1C(F)(F)F` [US20260055079, Example 132], the IC50 was < 50 nM in test [1], > 2000 nM in test [3] and > 2000 nM in test [2].

Values taken from BindingDB's records for patent US20260055079 (Azkarra Therapeutics, 2026).
